Test results published in BindingDB's records for patent US20240294551 (Amgen, 2024).

Experiments:
GTPase KRas [G12D,C118A] = GTPase KRas [G12D,C118A] (Homo sapiens, UniProt P01116, C118A/G12D); assay: Coupled Nucleotide Exchange Assay
Experimental: Following compound pre-incubation, purified SOS protein (aa 564-1049) and GTP (Roche 10106399001) were added to the assay wells and incubated for an additional 30 min. To determine the extent of inhibition of SOS-mediated nucleotide exchange, purified GST-tagged cRAF (aa 1-149), nickel chelate AlphaLISA acceptor beads (PerkinElmer AL108R), and AlphaScreen glutathione donor beads (PerkinElmer 6765302) were added to the assay wells and incubated for 10 minutes. The assay plates were then read on a PerkinElmer EnVision Multilabel Reader, using AlphaScreen technology, and data were analyzed using a 4-parameter logistic model to calculate IC50 values.

GTPase KRas [G12D] = GTPase KRas [G12D] (Homo sapiens, UniProt P01116, G12D); assay: TR-FRET Assay
GTPase KRas [G12D], sequence (P01116 whole entry G12D): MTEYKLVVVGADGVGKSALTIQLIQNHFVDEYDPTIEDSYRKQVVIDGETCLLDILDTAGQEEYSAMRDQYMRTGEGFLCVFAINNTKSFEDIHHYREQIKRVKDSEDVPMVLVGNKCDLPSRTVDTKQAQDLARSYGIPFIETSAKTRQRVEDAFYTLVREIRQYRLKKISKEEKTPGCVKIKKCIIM
Experimental: Compounds of interest were prepared in a dose-response titration in DMSO, and 80 nL were added via Labcyte Echo to each well of a 384-well plate (Perkin Elmer 6008280). The His-tagged KRAS G12D protein (Amgen) was diluted to 20 nM in Assay Buffer (20 mM HEPES, pH 7.4, 10 mM MgCl2, 50 mM NaCl, 0.1% BSA, 0.01% Tween-20, 10 μM GDP) and 2 μL was added to the appropriate wells of the 384-well plate. The plate was incubated for 30 minutes at room temperature. Biotinylated KRPep-2d substrate (Amgen) was diluted to 20 nM in Assay Buffer and 2 μL was added to all wells and incubated for 1 hour at room temperature. Detection Reagent (0.4 nM LANCE Eu-W1024 Anti-6×His (Perkin Elmer AD0401), 5 nM streptavidin-d2 (Cisbio 610SADLA)) was prepared in Assay Buffer, then 4 μL was added to the plate and incubated for 1 hour at room temperature. Plates were read using PerkinElmer EnVision (ex: 320 nm, em1: 665 nm, em2: 615 nm) and em1/em2 data was used to generate curve fits using a 4-parameter logistic model to calculate IC50 values.

GTPase KRas [G12D,C118A], sequence (P01116 whole entry G12D/C118A, looked up, the tested form may be a part): as the sequence (P01116 whole entry G12D) above, with C118A counted along it

Structure (SMILES)	IC50 (GTPase KRas [G12D,C118A]) [nM]	IC50 (GTPase KRas [G12D]) [nM]
Cc1cc2[nH]ncc2c2c1CCCOC(=O)N1CC[C@@H]3CCN(C[C@@H]31)c1nc(OC[C@@]34CCCN3C[C@H](F)C4)nc3c(F)c-2ncc13 (mixture of isomers) [US20240294551, Example 75]	13	20
Cc1cc2[nH]ncc2c2c1CCCOC(=O)O[C@@H]1COCCN(C1)c1nc(OC[C@@]34CCCN3C[C@H](F)C4)nc3c(F)c-2c(F)cc13 [US20240294551, Example 102]	2	3
Fc1c2ncc3c(nc(OC[C@@]45CCCN4C[C@H](F)C5)nc13)N1CCC[C@@H](CSCCCCc3c(Cl)cc4[nH]ncc4c3-2)C1 [US20240294551, Example 143]	2	3
Fc1c2ncc3c(nc(OC[C@@]45CCCN4C[C@H](F)C5)nc13)N1CCC[C@H](C1)c1coc(n1)CCCc1c(Cl)cc3[nH]ncc3c1-2 [US20240294551, Example 157]	1	2
Cc1cc2[nH]ncc2c2c1CCCOC(=O)O[C@@H]1COCCN(C1)c1nc(OC[C@@]34CCCN3C[C@H](F)C4)nc3c(F)c-2ccc13 [US20240294551, Example 192]	2	4
CN(C)CC1(COc2nc3c4cnc(c(F)c4n2)-c2c(c(Cl)cc4[nH]ncc24)CCCOC(=O)O[C@@H]2COCCN3C2)CC1 [US20240294551, Example 195]	2	4
Fc1c2ncc3c(nc(OC[C@@]45CCCN4C[C@H](F)C5)nc13)N1CCOC[C@H](C1)c1noc(n1)CCCc1c(Cl)cc3[nH]ncc3c1-2 [US20240294551, Example 381]	1	5
O[C@@H]1CCOCCc2c(Cl)cc3[nH]ncc3c2-c2ncc3c(nc(OC[C@@]45CCCN4C[C@H](F)C5)nc3c2F)N2CCC[C@@H]1C2 [US20240294551, Example 404]	6	10
